Data: PMC6104605, “Discovery of new chromen-4-one derivatives as telomerase inhibitors through regulating expression of dyskerin” (Journal of Enzyme Inhibition and Medicinal Chemistry, 2018)

Legend:
[1] = tested on: human gastric cancer cells SGC-7901; experiment: MTT anticancer assay, SGC-7901; type: cell-based
Protocol: The MTT was purchased from Sigma. Cell Cycle Analysis Kit and Apoptosis Analysis Kit were purchased from Bestbio (China). Mitochondrial membrane potential assay kit with JC-1 was purchased from Beyotime (China). All the materials were used as received without further purification unless noted specifically. The cell culture was maintained on DMEM medium (Hyclone, US) supplemented with 10% fetal bovine serum (Sijiqing, China), 100 U/mL penicillin and 100 µg/mL streptomycin in 25-cm^2 culture flasks at 37 °C humidified atmosphere with 5% CO2. Drugs were dissolved in DMSO and filtered through 0.22-µm pore-size filter units before addition to cell line appropriate media. When tumor cells were grown to log phase, diluting to 5 × 10^4 cells mL^−1 with the complete medium, 100 µL of the obtained cell suspension was added to each well of 96-well culture plates. The subsequent incubation was performed at 37 °C, 5% CO2 atmosphere for 48 h before subjecting to anti-proliferation assessment. After 48-h exposure period, 20 µL of PBS containing 5 mg·mL^−1 of MTT was added to each well. After 4 h, the medium was replaced by 150 µL DMSO to dissolve the purple formazan crystals produced. […] The data represented the mean of three experiments in triplicate and were expressed as means ± SD.

[2] = tested on: human liver cancer cell SMMC-7721; experiment: MTT anticancer assay, SMMC-7721; type: cell-based; conditions: 48 h exposure, mean ± SD
Protocol: The MTT was purchased from Sigma. Cell Cycle Analysis Kit and Apoptosis Analysis Kit were purchased from Bestbio (China). Mitochondrial membrane potential assay kit with JC-1 was purchased from Beyotime (China). All the materials were used as received without further purification unless noted specifically. The cell culture was maintained on DMEM medium (Hyclone, US) supplemented with 10% fetal bovine serum (Sijiqing, China), 100 U/mL penicillin and 100 µg/mL streptomycin in 25-cm^2 culture flasks at 37 °C humidified atmosphere with 5% CO2. Drugs were dissolved in DMSO and filtered through 0.22-µm pore-size filter units before addition to cell line appropriate media. When tumor cells were grown to log phase, diluting to 5 × 10^4 cells mL^−1 with the complete medium, 100 µL of the obtained cell suspension was added to each well of 96-well culture plates. The subsequent incubation was performed at 37 °C, 5% CO2 atmosphere for 48 h before subjecting to anti-proliferation assessment. After 48-h exposure period, 20 µL of PBS containing 5 mg·mL^−1 of MTT was added to each well. After 4 h, the medium was replaced by 150 µL DMSO to dissolve the purple formazan crystals produced. The absorbance at 492 nm of each well was measured on an ELISA plate reader. The data represented the mean of three experiments in triplicate and were expressed as means ± SD. The IC50 value was defined as the concentration at which 50% of the cells could survive. The following human tumor cell lines were used in the assay: human gastric cancer cells SGC-7901, human liver cancer cell SMMC-7721 and HepG2, human cervical cancer cell Hela and human glioma cell U87.

[3] = tested on: PARP; experiment: Western blot, PARP; type: cell-based, human; conditions: SGC-7901, 1, 2 and 4 μM, 48 h
Protocol: (§1) An equivalent volume of 5 × SDS-sample buffer was added to cell lysates and boiled for 10 min. The supernatants were subjected to electrophoresis on SDS-PAGE gels and transferred to PVDF membrane by using a Bio-Rad apparatus. Membranes were blocked for 3 h at room temperature in TBST containing 5% non-fat dried milk and probed overnight at 4 °C with antibodies. CyclinD1 (abcam, ab134175, 1:10000), CDC25A (abcam, ab156574, 1:1000), CDC25C (abcam, ab32051, 1:1000), bcl-2 (abcam, ab32124,1:1000), bax (abcam, ab32503, 1:1000), PARP (abcam, ab191217, 1:1000), γH2AX (abcam, ab81299, 1:5000), dyskerin (abcam, ab156877, 1:1000), NHP2 (abcam, ab180498, 1:1000), NOP10 (abcam, ab133726, 1:1000) antibody was performed with rabbit primary antibody. Otherwise, β-actin (ZSGB-BIO, 1:1000) detection was performed with mouse primary antibody which was served as internal controls. Protein bands of β-actin was visualised using peroxidase-labeled goat anti-mouse and others were visualised using peroxidase-labeled goat anti-rabbit secondary antibody (1:5000 dilution, 1 h, room temperature), and the protein expression signals were detected by the BeyoECL Plus (Beyotime).

[4] = tested on: SGC-7901 cells; experiment: Annexin V-FITC/PI apoptosis analysis by flow cytometry; type: cell-based, human; conditions: 48 h, control 3.06%
Protocol: Apoptosis was detected by flow cytometric analysis of annexin V staining. Annexin V-FITC/PI assay was performed according to previously described. First, adherent SGC-7901 cells were harvested and suspended in the annexin-binding buffer (1 × 10^6 cells/mL). Then, cells were incubated with V-FITC buffer and incubated with annexin V-FITC for 15 min and then stained by PI for 5 min at 4 °C in the dark, immediately analyzed by flow cytometry. The data are presented as biparametric dot plots showing PI red fluorescence versus annexin V-FITC green fluorescence.

[5] = tested on: γH2AX; experiment: Western blot, γH2AX; type: cell-based, human; conditions: SGC-7901, 1, 2 and 4 μM, 48 h
Protocol: as §1

For COc1cc(OC)c2c(=O)c(OCCCCN3CCN(C(=O)c4ccncc4)CC3)c(-c3cc(OC)c(OC)c(OC)c3)oc2c1 [Compound 5i, 3-(4-(4-isonicotinoylpiperazin-1-yl)butoxy)-5,7-dimethoxy-2-(3,4,5-trimethoxyphenyl)-4H-chromen-4-one], which “activity against SGC-7901 cells (in words)” value [1] is on record?
The value was “good activity”.

What about the IC50 ([1]; Homo sapiens, SGC-7901, MTT, 48 h exposure, mean ± SD) of the same compound?
Its IC50 is 1.35 ± 0.17 µM.

What about the IC50 [2] of the same compound?
Its IC50 is 1.33 ± 0.14 µM.

What about the “PARP (western blot)” value [3] of the same compound?
Its value is “reduced”.

And the Apoptosis ratio ([4]; SGC-7901, 1 µM)?
The Apoptosis ratio was 12.47%.

What about the Apoptosis ratio ([4]; SGC-7901, 2 µM) of the same compound?
The Apoptosis ratio was 26.3%.

And the Apoptosis ratio ([4]; SGC-7901, 4 µM)?
Its Apoptosis ratio is 48.7%.

What about the “expression of γH2AX (western blot)” value [5] of the same compound?
Its value is “significantly decrease”.
